Assays:
Format in all cases: functional
[1] = tested on: CCRF-CEM; test: Growth inhibition of human CCRF-CEM cells assessed as cell growth at 10 uM incubated for 48 hrs by sulforhodamine B assay relative to control; details: read-out: Activity
[2] = tested on: K562; test: Growth inhibition of human K562 cells assessed as cell growth at 10 uM incubated for 48 hrs by sulforhodamine B assay relative to control; details: K562, 48 h, read-out: Activity
[3] = tested on: MOLT-4; test: Growth inhibition of human MOLT4 cells assessed as cell growth at 10 uM incubated for 48 hrs by sulforhodamine B assay relative to control; details: MOLT-4, 48 h, read-out: Activity
[4] = tested on: SR; test: Growth inhibition of human SR cells assessed as cell growth at 10 uM incubated for 48 hrs by sulforhodamine B assay relative to control; details: read-out: Activity
[5] = tested on: HOP-62; test: Growth inhibition of human HOP62 cells assessed as cell growth at 10 uM incubated for 48 hrs by sulforhodamine B assay relative to control; details: HOP-62, 48 h, read-out: Activity
[6] = tested on: NCI-H226; test: Growth inhibition of human NCI-H226 cells assessed as cell growth at 10 uM incubated for 48 hrs by sulforhodamine B assay relative to control; details: NCI-H226, 48 h, read-out: Activity
[7] = tested on: NCI-H23; test: Growth inhibition of human NCI-H23 cells assessed as cell growth at 10 uM incubated for 48 hrs by sulforhodamine B assay relative to control; details: NCI-H23, 48 h, read-out: Activity
[8] = tested on: HCC 2998; test: Growth inhibition of human HCC2998 cells assessed as cell growth at 10 uM incubated for 48 hrs by sulforhodamine B assay relative to control; details: HCC 2998, 48 h, read-out: Activity
[9] = tested on: HCT-15; test: Growth inhibition of human HCT15 cells assessed as cell growth at 10 uM incubated for 48 hrs by sulforhodamine B assay relative to control; details: HCT-15, 48 h, read-out: Activity
[10] = tested on: HT-29; test: Growth inhibition of human HT-29 cells assessed as cell growth at 10 uM incubated for 48 hrs by sulforhodamine B assay relative to control; details: HT-29, 48 h, read-out: Activity
[11] = tested on: KM12; test: Growth inhibition of human KM12 cells assessed as cell growth at 10 uM incubated for 48 hrs by sulforhodamine B assay relative to control; details: KM12, 48 h, read-out: Activity
[12] = tested on: SW-620; test: Growth inhibition of human SW620 cells assessed as cell growth at 10 uM incubated for 48 hrs by sulforhodamine B assay relative to control; details: SW-620, 48 h, read-out: Activity
[13] = tested on: SF-268; test: Growth inhibition of human SF268 cells assessed as cell growth at 10 uM incubated for 48 hrs by sulforhodamine B assay relative to control; details: SF-268, 48 h, read-out: Activity
[14] = tested on: SF-295; test: Growth inhibition of human SF295 cells assessed as cell growth at 10 uM incubated for 48 hrs by sulforhodamine B assay relative to control; details: SF-295, 48 h, read-out: Activity
[15] = tested on: SF-539; test: Growth inhibition of human SF539 cells assessed as cell growth at 10 uM incubated for 48 hrs by sulforhodamine B assay relative to control; details: SF-539, 48 h, read-out: Activity
[16] = tested on: SNB-19; test: Growth inhibition of human SNB19 cells assessed as cell growth at 10 uM incubated for 48 hrs by sulforhodamine B assay relative to control; details: SNB-19, 48 h, read-out: Activity
[17] = tested on: SNB-75; test: Growth inhibition of human SNB75 cells assessed as cell growth at 10 uM incubated for 48 hrs by sulforhodamine B assay relative to control; details: SNB-75, 48 h, read-out: Activity
[18] = tested on: U-251; test: Growth inhibition of human U251 cells assessed as cell growth at 10 uM incubated for 48 hrs by sulforhodamine B assay relative to control; details: U-251, 48 h, read-out: Activity
[19] = tested on: LOX IMVI; test: Growth inhibition of human LOXIMVI cells assessed as cell growth at 10 uM incubated for 48 hrs by sulforhodamine B assay relative to control; details: read-out: Activity
[20] = tested on: Malme-3M; test: Growth inhibition of human MALME-3M cells assessed as cell growth at 10 uM incubated for 48 hrs by sulforhodamine B assay relative to control; details: read-out: Activity
[21] = tested on: M14; test: Growth inhibition of human M14 cells assessed as cell growth at 10 uM incubated for 48 hrs by sulforhodamine B assay relative to control; details: M14, 48 h, read-out: Activity
[22] = tested on: SK-MEL-28; test: Growth inhibition of human SK-MEL-28 cells assessed as cell growth at 10 uM incubated for 48 hrs by sulforhodamine B assay relative to control; details: SK-MEL-28, 48 h, read-out: Activity
[23] = tested on: UACC-62; test: Growth inhibition of human UACC62 cells assessed as cell growth at 10 uM incubated for 48 hrs by sulforhodamine B assay relative to control; details: UACC-62, 48 h, read-out: Activity
[24] = tested on: OVCAR-4; test: Growth inhibition of human OVCAR4 cells assessed as cell growth at 10 uM incubated for 48 hrs by sulforhodamine B assay relative to control; details: OVCAR-4, 48 h, read-out: Activity
[25] = tested on: OVCAR-5; test: Growth inhibition of human OVCAR5 cells assessed as cell growth at 10 uM incubated for 48 hrs by sulforhodamine B assay relative to control; details: OVCAR-5, 48 h, read-out: Activity
[26] = tested on: OVCAR-8; test: Growth inhibition of human OVCAR8 cells assessed as cell growth at 10 uM incubated for 48 hrs by sulforhodamine B assay relative to control; details: OVCAR-8, 48 h, read-out: Activity
[27] = tested on: NCI/ADR-RES; test: Growth inhibition of human NCI/ADR-RES cells assessed as cell growth at 10 uM incubated for 48 hrs by sulforhodamine B assay relative to control; details: read-out: Activity
[28] = tested on: SK-OV-3; test: Growth inhibition of human SKOV3 cells assessed as cell growth at 10 uM incubated for 48 hrs by sulforhodamine B assay relative to control; details: SK-OV-3, 48 h, read-out: Activity
[29] = tested on: ACHN; test: Growth inhibition of human ACHN cells assessed as cell growth at 10 uM incubated for 48 hrs by sulforhodamine B assay relative to control; details: read-out: Activity
[30] = tested on: CAKI-1; test: Growth inhibition of human Caki1 cells assessed as cell growth at 10 uM incubated for 48 hrs by sulforhodamine B assay relative to control; details: CAKI-1, 48 h, read-out: Activity
[31] = tested on: UO-31; test: Growth inhibition of human UO31 cells assessed as cell growth at 10 uM incubated for 48 hrs by sulforhodamine B assay relative to control; details: UO-31, 48 h, read-out: Activity
[32] = tested on: MDA-MB-231; test: Growth inhibition of human MDA-MB-231 cells assessed as cell growth at 10 uM incubated for 48 hrs by sulforhodamine B assay relative to control; details: MDA-MB-231, 48 h, read-out: Activity
[33] = tested on: Hs-578T; test: Growth inhibition of human Hs 578T cells assessed as cell growth at 10 uM incubated for 48 hrs by sulforhodamine B assay relative to control; details: read-out: Activity
[34] = tested on: T47D; test: Growth inhibition of human T47D cells assessed as cell growth at 10 uM incubated for 48 hrs by sulforhodamine B assay relative to control; details: read-out: Activity

Row | Structure (SMILES) | growth at 10 µM [5] [%] | growth at 10 µM [6] [%] | growth at 10 µM [7] [%] | growth at 10 µM [8] [%] | growth at 10 µM [10] [%] | growth at 10 µM [11] [%] | growth at 10 µM [12] [%] | growth at 10 µM [13] [%] | growth at 10 µM [15] [%] | growth at 10 µM [16] [%] | growth at 10 µM [17] [%] | growth at 10 µM [18] [%] | growth at 10 µM [19] [%] | growth at 10 µM [20] [%] | growth at 10 µM [21] [%] | growth at 10 µM [22] [%] | growth at 10 µM [23] [%] | growth at 10 µM [24] [%] | growth at 10 µM [25] [%] | growth at 10 µM [26] [%] | other results
1 | CCOC(=O)c1c(C)oc2ncnc(Nc3cccc(F)c3)c12 | 101 | 101 | 97.8 | 103 | 89.8 | 100 | 94.2 | 102 | 99.4 | 93.7 | 107 | 106 | 105 | 131 | 98.2 | 98.2 | 84 | 108 | 102 | 105 | growth at 10 µM [1]: 98.8%; growth at 10 µM [2]: 101%; growth at 10 µM [3]: 62.5%; growth at 10 µM [4]: 78.6%; growth at 10 µM [9]: 95.3%; growth at 10 µM [14]: 94.8%; growth at 10 µM [27]: 96.1%; growth at 10 µM [28]: 101%; growth at 10 µM [29]: 109%; growth at 10 µM [30]: 92%; growth at 10 µM [31]: 101%; growth at 10 µM [32]: 91.7%; growth at 10 µM [33]: 99%; growth at 10 µM [34]: 92.7%
2 | Cc1oc2ncnc(Nc3cccc(F)c3)c2c1C(=O)O | 98.4 | 109 | 97.6 | 102 | 110 | 102 | 101 | 96.3 | 92.5 | 94.6 | 85.8 | 106 | 98 | 107 | 112 | 103 | 90.2 | 101 | 97.6 | 112 | growth at 10 µM [1]: 110%; growth at 10 µM [2]: 98.5%; growth at 10 µM [3]: 102%; growth at 10 µM [4]: 104%; growth at 10 µM [9]: 101%; growth at 10 µM [14]: 98.7%; growth at 10 µM [27]: 105%; growth at 10 µM [28]: 102%; growth at 10 µM [29]: 100%; growth at 10 µM [30]: 93.8%; growth at 10 µM [31]: 92.7%; growth at 10 µM [32]: 85%; growth at 10 µM [33]: 99.9%; growth at 10 µM [34]: 95.6%
3 | CCOC(=O)c1c(C)oc2ncnc(Nc3ccc(OCc4ccc(Cl)cc4)cc3)c12 | 97.7 | 98.8 | 95.4 | 108 | 94.4 | 101 | 106 | 109 | 98.2 | 111 | 116 | 107 | 95.8 | 123 | 102 | 101 | 87.7 | 104 | 100 | 107 | growth at 10 µM [1]: 110%; growth at 10 µM [2]: 83.8%; growth at 10 µM [3]: 109%; growth at 10 µM [4]: 92.1%; growth at 10 µM [9]: 108%; growth at 10 µM [14]: 97.9%; growth at 10 µM [27]: 101%; growth at 10 µM [28]: 88%; growth at 10 µM [29]: 101%; growth at 10 µM [30]: 94%; growth at 10 µM [31]: 99.5%; growth at 10 µM [32]: 101%; growth at 10 µM [33]: 111%; growth at 10 µM [34]: 84%
4 | Cc1oc2ncnc(Nc3cccc(F)c3)c2c1C(=O)NCCO | 97.4 | 106 | 99.6 | 114 | 96.8 | 97.9 | 103 | 101 | 90.9 | 104 | 92.2 | 104 | 100 | 118 | 109 | 104 | 92.2 | 108 | 100 | 105 | growth at 10 µM [1]: 117%; growth at 10 µM [27]: 114%; growth at 10 µM [28]: 89.2%; growth at 10 µM [29]: 103%; growth at 10 µM [30]: 90.5%; growth at 10 µM [31]: 96.5%; growth at 10 µM [32]: 91.2%; growth at 10 µM [33]: 103%; growth at 10 µM [34]: 95.4%
5 | CCOC(=O)c1c(C)oc2ncnc(Nc3ccc(F)c(Cl)c3)c12 | 101 | 94.6 | 88 | 109 | 92.8 | 104 | 101 | 97.6 | 104 | 100 | 113 | 91.8 | 103 | 114 | 110 | 110 | 94.9 | 118 | 112 | 100 | growth at 10 µM [2]: 93.8%; growth at 10 µM [3]: 99.2%; growth at 10 µM [4]: 96.8%; growth at 10 µM [9]: 112%; growth at 10 µM [14]: 97%; growth at 10 µM [27]: 107%; growth at 10 µM [28]: 90.7%; growth at 10 µM [29]: 112%; growth at 10 µM [30]: 106%; growth at 10 µM [31]: 88.5%; growth at 10 µM [32]: 101%; growth at 10 µM [33]: 97%; growth at 10 µM [34]: 83.8%
6 | CCOC(=O)c1c(C)oc2ncnc(Nc3ccc(F)cc3)c12 | 101 | 100 | 91.9 | 108 | 95.3 | 97.6 | 94.9 | 98.5 | 93.6 | 91.4 | 94.7 | 98 | 99.5 | 95.4 | 103 | 97.5 | 88.6 | 99.1 | 91.4 | 106 | growth at 10 µM [1]: 31.3%; growth at 10 µM [27]: 101%; growth at 10 µM [28]: 104%; growth at 10 µM [29]: 99%; growth at 10 µM [30]: 97.9%; growth at 10 µM [31]: 92.4%; growth at 10 µM [32]: 86.8%; growth at 10 µM [33]: 96.1%; growth at 10 µM [34]: 99.6%
